Source: paper PMC11172314, “Towards Enhanced Tunability of Aqueous Biphasic Systems: Furthering the Grasp of Fluorinated Ionic Liquids in the Purification of Proteins” (International Journal of Molecular Sciences, 2024)

Assays:
[1] = molecular target: T1, FITC-Lys (lysozyme) (Gallus gallus, UniProt P00698); assay: Microscale thermophoresis (MST) binding of ABS phase-forming components to FITC-labeled lysozyme; design: species or system chicken; details: FITC-Lys 0.41 μM, 25 °C; max. conc. (first capillary) in monomer range: below 1st CAC for FILs, ]0, 100] mM for non-aggregating ligands
T1 construct: Lyophilized lysozyme from chicken egg white, ≥90% purity; purchased Millipore (Darmstadt, Germany); host or cells: chicken egg white (natural source)
Experimental: Usually, in the labeling process, the position of dye is statistically distributed, and one amine per protein is labeled. […] The four ABS phase-forming components, [ N1112(OH) ][H2PO4] […] (FILs), and [C4C1Im][CF3SO3] […] In each run of MST, a maximum concentration of ligand was selected and consecutively diluted in sixteen capillaries.
Binding studies were conducted through microscale thermophoresis measurements of dye-labeled lysozyme. […] MST tests were conducted in a monolith NT.115 (blue/red) in accordance with the Nano Temper Technologies methodology. Medium MST power and 20% LED power (nano-blue) were set as the instrument’s default settings. For each and every MST measurement, PBS buffer was used. […] For each ligand, a series of 16 1:1 dilutions was prepared using the same buffer, varying the starting ligand concentration from 15 to 400 mM. MST traces were recorded using the standard parameters: 5 s MST power off, 30 s MST power on, and 5 s MST power off. Three independently conducted pipetted experiments’ data were examined using NanoTemper Technologies’ MO. Affinity Analysis program, version 2.3.

[2] = molecular target: T2, lysozyme (Lys) (Gallus gallus, UniProt P00698); assay: DSC thermal stability (Tm, ΔH) of lysozyme in water, component solutions and ABS phases; design: species or system chicken; details: 1.0 mg/mL Lys
T2 construct: Lyophilized lysozyme from chicken egg white, ≥90% purity; purchased Millipore (Darmstadt, Germany); host or cells: chicken egg white (natural source)
Source text: Differential scanning calorimetry (DSC) measurements (Section 3) were used to determine the melting temperature ( Tm ) and enthalpy ( Δ H) of lysozyme, at which both the folded and unfolded states coexist at equilibrium. DSC outputs, thermal transitions at the nanoscale level, allow to analyze alterations on proteins structure and stability, providing sharp perceptions of the factors affecting stability, as well as of the folding and unfolding processes. […] (DSC curve depicted in Figure S16 of Supplementary Materials).
FIL (BP#8, BP#10, BP#11, and BP#12). […] For the system based on [C4C1Im][CF3SO3]
The thermal stability of lysozyme was analyzed in water, ABS phase-forming compounds aqueous solutions, and partition ABS phases. […] Partition lysozyme on each phase from the prepared biphasic points as well as recovered protein from the FIL-rich phase were also addressed for a selection of studied systems listed in Table 1. We acquired thermograms using a TA^TM Nano DSC from TA Instruments. All scans were conducted in a 300 μ L capillary cell through a temperature ramp from 20 to 90 °C at a heating rate of 1 °C/min and 3 atm pressure. All samples were degassed for 7 min at 20 °C, with the exception of FIL-containing samples owing to their surfactant properties. After subtracting the polynomial fit baselines, raw thermogram curve data were fitted with the TwoStateScaled model using NanoAnalyze TA Instruments software, version 3.12, to determine the protein thermal transition temperatures in each sample. During nanoDSC scans, Δ H and Δ S were obtained and utilized to determine Δ G ( Δ G = Δ H − T Δ S).

T2 sequence (P00698 19-147): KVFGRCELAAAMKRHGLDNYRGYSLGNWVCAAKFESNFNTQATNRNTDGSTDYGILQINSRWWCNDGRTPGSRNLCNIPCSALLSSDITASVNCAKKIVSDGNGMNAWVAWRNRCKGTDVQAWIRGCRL
T1 sequence (P00698 19-147): as above

In the case of CCCCn1cc[n+](C)c1.O=S(=O)([O-])C(F)(F)F [[C4C1Im][CF3SO3]], the Kd [1] is reported as “no binding detected”, the “Lys Tm” value ([2]; 0.1 mM component in water) is reported as 74.50 °C and the “Lys ∆H” value ([2]; 0.1 mM component in water) is reported as 105.5 kcal/mol. The “Lys Tm” value ([2]; 1 mM component in water) was 75.54 °C, the “Lys ∆H” value ([2]; 1 mM component in water) was 104.7 kcal/mol and the “Lys Tm” value ([2]; 5 mM component in water) was 74.64 °C. The “Lys ∆H” value ([2]; 5 mM component in water) was 96.7 kcal/mol, the “Lys Tm” value ([2]; 10 mM component in water) was 74.16 °C and the “Lys ∆H” value ([2]; 10 mM component in water) was 94.55 kcal/mol.
